For the assay, the system named is intestinal brush border membrane nutrient absorption. Kind of assay: Nutrient uptake into brush border membrane vesicles after jejunal loop treatment. The assay is classed as in vivo, New Zealand White rabbits. How it is done: Subsequent experiments examined the effects of EGF and an inhibitor of the EGF receptor (tyrphostin 51) on intestinal brush border membrane nutrient absorption. Tyrphostin 51is a specific inhibitor of tyrosine kinase, which is a critical element of the EGF intracellular signalling cascade. Studies were performed in New Zealand White rabbits (700-1000 g; approximately 8 weeks of age). Two 10 cm blind jejunal loops separated by a 1 cm segment were tied off starting 5 cm distal to the ligament of Treitz. In separate experiments either EGF (60 ng/ml), EGF+tyrphostin (10 μM), or tyrphostin (10 μM) alone in 1.5 ml of saline vehicle was administered to one of the loops. The other loop received vehicle alone and served as a paired control. After one hour, the loops were removed and the mucosa scraped for preparation of brush border membrane vesicles. Nutrient (D-glucose and L-proline) uptake into brush border membrane vesicles was determined by established techniques. Luminal EGF stimulated a significant increase (p<0.001) in brush border membrane glucose (EGF 16.1±1.0 vs CONTROL 11.5±0.9 nmol/min/mg protein; n=5) and proline (EGF 3.8±0.5 vs CONTROL 2.6±0.3 nmol/min/mg protein; n=5) transport compared to controls. […] Subsequently, a further series of experiments examined the effect of tyrphostin alone on brush border glucose transport. […]

Regarding `N#CC(C#N)=C(N)/C(C#N)=C/c1cc(O)c(O)c(O)c1` [TYR, tyrphostin 51, reference compound], the “effect on EGF-induced increase in glucose uptake” value (concurrent tyrphostin 10 μM with EGF 60 ng/ml) is recorded as “completely blocked”. The “brush border membrane glucose uptake” value (tyrphostin 10 μM alone, one hour, n=4, control 10.7±1.0) was 8.0±0.8 nmol/min/mg protein.

(Values after patent US6656907B1, “Method of treating gastric ulcer by administration of epidermal growth factor” (University Technologies International Inc., priority 1995, dated 2003).)
